# Target: Influenza PB2 (Influenza A virus, UniProt P03428)
# Assay: biochemical
# Type: binding
# Settings: read-out: Influenza PB2 affinity, IC50
# Chain of Influenza PB2 (P03428 whole entry, looked up): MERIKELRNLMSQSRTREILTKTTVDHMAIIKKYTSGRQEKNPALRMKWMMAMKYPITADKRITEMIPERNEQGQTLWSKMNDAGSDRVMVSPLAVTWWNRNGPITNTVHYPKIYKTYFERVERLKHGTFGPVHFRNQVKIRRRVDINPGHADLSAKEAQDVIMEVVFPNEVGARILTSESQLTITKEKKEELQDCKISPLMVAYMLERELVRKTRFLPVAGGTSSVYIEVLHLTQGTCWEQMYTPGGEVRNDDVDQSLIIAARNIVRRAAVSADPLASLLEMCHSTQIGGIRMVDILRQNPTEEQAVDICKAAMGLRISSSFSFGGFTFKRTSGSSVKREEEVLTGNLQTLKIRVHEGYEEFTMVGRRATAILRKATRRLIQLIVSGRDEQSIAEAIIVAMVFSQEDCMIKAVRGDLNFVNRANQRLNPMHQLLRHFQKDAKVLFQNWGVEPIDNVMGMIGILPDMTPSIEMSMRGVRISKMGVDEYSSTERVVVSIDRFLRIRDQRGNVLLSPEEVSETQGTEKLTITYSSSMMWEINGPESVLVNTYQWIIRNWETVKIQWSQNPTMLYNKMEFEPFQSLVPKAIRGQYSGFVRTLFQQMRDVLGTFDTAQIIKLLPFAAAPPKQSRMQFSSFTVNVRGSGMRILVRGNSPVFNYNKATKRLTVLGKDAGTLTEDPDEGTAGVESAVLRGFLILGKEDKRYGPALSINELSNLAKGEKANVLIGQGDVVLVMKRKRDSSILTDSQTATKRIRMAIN
row,SMILES,IC50
1,COC(=O)[C@@]1(C)CCCC[C@@H]1n1ccc2cnc(-c3c[nH]c4ncc(F)cc34)nc21 [Compound B67],10 to 100 µM
2,O=C(O)C[C@H](NC(=O)Cn1ccc2c(-c3c[nH]c4ncc(F)cc34)ncnc21)C(=O)O [Compound A14],1 to 10 µM
3,CCOCCOCCOCC(=O)N[C@@H]1CCC[C@H](n2ccc3cnc(-c4c[nH]c5ncc(F)cc45)nc32)C1 [Compound B28],10 to 100 µM
4,C[C@@]1(C(=O)O)CCCC[C@H]1n1cc(Cl)c2cnc(-c3c[nH]c4ncc(F)cc34)nc21 [Compound B72],< 1 µM
5,CCOC(=O)[C@@H]1C2CCC(CC2)[C@H]1n1cc(-c2ccc(O)cc2)c2cnc(-c3c[nH]c4ncc(F)cc34)nc21 [Compound B178],10 to 100 µM
6,COC(=O)[C@@H]1CCC[C@H]1n1ccc2cnc(-c3c[nH]c4ncc(F)cc34)nc21 [Compound B19],1 to 10 µM
7,CC(=O)N1CCC(Cn2cc(F)c3cnc(-c4c[nH]c5ncc(F)cc45)nc32)CC1 [Compound B58],10 to 100 µM
8,O=C(O)C1=C(n2cc(F)c3cnc(-c4c[nH]c5ncc(Cl)cc45)nc32)CCCC1 [Compound B103],< 1 µM
9,N#Cc1cn([C@@H]2C3CCC(CC3)[C@H]2C(=O)O)c2nc(-c3c[nH]c4ncc(Cl)cc34)ncc12 [Compound B191],< 1 µM
10,CCOC(=O)[C@@H]1C2CCC(CC2)[C@H]1n1cc(-c2ccsc2)c2cnc(-c3c[nH]c4ncc(F)cc34)nc21 [Compound B183],10 to 100 µM
11,O=C(N[C@H]1CCC[C@@H](n2cc(F)c3cnc(-c4c[nH]c5ncc(Cl)cc45)nc32)C1)c1ccccn1 [Compound B96],> 100 µM
12,O=C(O)[C@@H]1C2CCC(CC2)C1n1cc(-c2ccncc2)c2cnc(-c3c[nH]c4ncc(Cl)cc34)nc21 (stereo partly shown) [Compound B187],1 to 10 µM
13,CC(C)(C)OC(=O)N[C@@H]1C2CCC(CC2)[C@H]1n1cc(Cl)c2cnc(-c3c[nH]c4ncc(F)cc34)nc21 [Compound B172],> 100 µM
14,CNC(=O)Cn1cc(-c2c[nH]c3ncc(F)cc23)c2cncnc21 [Compound C9],10 to 100 µM
15,CCOC(=O)[C@]1(C)CCCC[C@H]1n1cc(F)c2cnc(-c3c[nH]c4ncc(F)cc34)nc21 [Compound B90],> 100 µM
16,O=C(O)[C@@H]1C2CCC(CC2)[C@H]1n1cc(C#CC2CC2)c2cnc(-c3c[nH]c4ncc(F)cc34)nc21 [Compound B153],< 1 µM
17,O=C(O)[C@@H]1C2CCC(CC2)[C@H]1n1cc(-c2ccccn2)c2cnc(-c3c[nH]c4ncc(F)cc34)nc21 [Compound B169],< 1 µM
18,CCOC(=O)[C@@H]1C2CCC(CC2)[C@H]1n1cc(-c2cccnc2)c2cnc(-c3c[nH]c4ncc(F)cc34)nc21 [Compound B181],1 to 10 µM
19,CCOCCOCCOCCN(C)C(=O)N[C@H]1CCC[C@@H](n2ccc3cnc(-c4c[nH]c5ncc(F)cc45)nc32)C1 [Compound B29],10 to 100 µM
20,O=C(O)[C@@H]1C2CCC(CC2)[C@H]1n1cc(-c2ccncc2F)c2cnc(-c3c[nH]c4ncc(Cl)cc34)nc21 (relative stereo) [Compound B211],1 to 10 µM
21,"O=C(O)[C@H]1CCCC1n1ccc2cnc(-c3c[nH]c4ncc(F)cc34)nc21 (single isomer, unassigned) [Compound B21]",1 to 10 µM
22,COC(=O)N[C@H]1C2CCC(CC2)[C@@H]1n1cc(Cl)c2cnc(-c3c[nH]c4ncc(F)cc34)nc21 [Compound B149],1 to 10 µM
23,O=C(O)[C@@H]1C2CCC(CC2)[C@H]1n1cc(-c2ccn[nH]2)c2cnc(-c3c[nH]c4ncc(F)cc34)nc21 [Compound B164],< 1 µM
24,O=C(O)[C@@H]1C2CCC(CC2)[C@H]1n1cc(CCc2ccccn2)c2cnc(-c3c[nH]c4ncc(F)cc34)nc21 [Compound B186],< 1 µM
25,O=C(O)[C@@H]1C2CCC(CC2)[C@H]1n1ccc2ccc(-c3c[nH]c4ncc(F)cc34)nc21 [Compound B205],1 to 10 µM

row,SMILES,IC50
1,CCOC(=O)[C@@H]1C2CCC(CC2)[C@H]1n1cc(F)c2cnc(-c3c[nH]c4ncc(C#N)cc34)nc21 [Compound B215],> 100 µM
2,COC(=O)CCn1cc(-c2c[nH]c3ncc(F)cc23)c2cncnc21 [Compound C3],> 100 µM
3,"O=C(O)[C@H]1CCCC1n1ccc2cnc(-c3c[nH]c4ncc(F)cc34)nc21 (single isomer, unassigned) [Compound B22]",1 to 10 µM
4,CCOCCOCCOCCNC(=O)N[C@H]1CCC[C@@H](n2ccc3cnc(-c4c[nH]c5ncc(F)cc45)nc32)C1 [Compound B27],10 to 100 µM
5,CN(C)C(=O)N[C@H]1CC[C@H](n2ccc3cnc(-c4c[nH]c5ncc(F)cc45)nc32)CC1 [Compound B80],> 100 µM
6,CCCCCOCCOCC(=O)N[C@@H]1CCC[C@H](n2ccc3cnc(-c4c[nH]c5ncc(F)cc45)nc32)C1 [Compound B39],10 to 100 µM
7,CCCCCOCCCCCNC(=O)N[C@H]1CCC[C@@H](n2ccc3cnc(-c4c[nH]c5ncc(F)cc45)nc32)C1 [Compound B49],> 100 µM
8,Fc1cnc2[nH]cc(-c3ncc4c(F)cn(CC5CCNCC5)c4n3)c2c1 [Compound B55],> 100 µM
9,C[C@H](NC(=O)Cn1ccc2c(-c3c[nH]c4ncc(F)cc34)ncnc21)C(=O)O [Compound A7],10 to 100 µM
10,CC(C)(C)OC(=O)NCCn1cc(-c2c[nH]c3ncc(F)cc23)c2cncnc21 [Compound C13],> 100 µM
11,CNC(=O)N1CCCCC1Cn1cc(F)c2cnc(-c3c[nH]c4ncc(F)cc34)nc21 (stereo not shown) [Compound B85],1 to 10 µM
12,CCOC(=O)[C@@H]1C2CCC(CC2)[C@H]1n1cc(-c2cn[nH]c2)c2cnc(-c3c[nH]c4ncc(F)cc34)nc21 [Compound B174],10 to 100 µM
13,C[C@]1(C(=O)O)CCCC[C@@H]1n1ccc2cnc(-c3c[nH]c4ncc(F)cc34)nc21 [Compound B71],< 1 µM
14,O=C(O)[C@H]1C2CCC(CC2)[C@@H]1n1cc(-c2cccnc2)c2cnc(-c3c[nH]c4ncc(F)cc34)nc21 [Compound B142],< 1 µM
15,O=C(O)[C@@H]1CCC[C@H](n2ccc3cnc(-c4c[nH]c5ncc(F)cc45)nc32)C1 [Compound B48],1 to 10 µM
16,O=C(O)[C@H]1C2CCC(CC2)[C@@H]1n1ccc2cnc(-c3c[nH]c4ncc(F)cc34)nc21 [Compound B123],1 to 10 µM
17,CCOC(=O)[C@H]1C2CCC(CC2)[C@@H]1n1cc(C#CCCSC)c2cnc(-c3c[nH]c4ncc(F)cc34)nc21 [Compound B185],> 100 µM
18,O=C(O)[C@H]1C2CCC(CC2)[C@@H]1n1cc(F)c2cnc(-c3c[nH]c4ncc(F)cc34)nc21 [Compound B131],< 1 µM
19,CCOC(=O)[C@H]1C2CCC(CC2)[C@@H]1n1cc(Cl)c2cnc(-c3cn(S(=O)(=O)c4ccc(C)cc4)c4ncc(F)cc34)nc21 [Compound B125],> 100 µM
20,CCOCCOCCCCC(=O)N[C@H]1CCC[C@@H](n2ccc3cnc(-c4c[nH]c5ncc(F)cc45)nc32)C1 (relative stereo) [Compound B100],10 to 100 µM
21,CNC(=O)n1cc(-c2ncc3c(F)cn(CC4CCCCN4)c3n2)c2cc(F)cnc21 (stereo not shown) [Compound B77],10 to 100 µM
22,CC(C)(C)C(C(=O)O)n1ccc2cnc(-c3c[nH]c4ncc(F)cc34)nc21 (stereo not shown) [Compound B84],1 to 10 µM
23,CCCCCOCCOCCN(C)C(=O)N[C@@H]1CCC[C@H](n2ccc3cnc(-c4c[nH]c5ncc(F)cc45)nc32)C1 [Compound B42],> 100 µM
24,"O=C(O)[C@@H]1C2CCC(CC2)C1n1cc(F)c2cnc(-c3c[nH]c4ncc(Cl)cc34)nc21 (single isomer, unassigned) [Compound B143]",< 1 µM

# From patent US11014941B2, “Pyrrolopyrimidine derivatives useful as inhibitors of influenza virus replication” (priority 2017, dated 2021)
